Earlier results as cited in CN101129366A, “一种尼莫地平药物组合物及其制备方法” (Beijing Zhonghaikang Medical Technology Development Co Ltd, priority 2007, dated 2008).

Conditions: drug substance

solubility in acetone and chloroform (acetone, chloroform): 易溶
solubility in ethanol (ethanol): 溶解
solubility in diethyl ether (ether): 微溶
solubility in water (water): 不溶
Structure (SMILES): COCCOC(=O)C1=C(C)NC(C)=C(C(=O)OC(C)C)C1c1cccc([N+](=O)[O-])c1 (stereo not shown) [尼莫地平]
